Test results published in patent US9486507B2, “Pro-coagulant compounds and methods of use thereof” (priority 2011, dated 2016).

The sequences below were run against FIXa (Homo sapiens, UniProt P00740) (assay: FXa generation assay with human FIXa). Conditions: FXa generation assay using human FIXa; class symbols.
Type: biochemical
Set-up: purchased Haematologic Technologies
Source text: FXa generation was utilized to assess the capability of the compounds of the present disclosure to enhance the catalytic activities of FIXa and/or FVIIa.
To measure the catalytic activity of FIXa, FIXa was mixed with FX and phospholipids in the presence of calcium chloride. Under these conditions FIXa cleaves the zymogen FX into the active form FXa.
The generation of FXa is monitored by the change in absorbance of the reaction at 405 nm due to the presence of a cleavable FXa chromogenic substrate (S-2765; Z-D-Arg-Gly-Arg-pNA; cleavage of p-nitroaniline). […] The kit contains all the FXa generation components, however, FIXa and FX obtained from this kit are from a bovine origin and were replaced with purified human FIXa or human FVIIa and human FX (Haematologic Technologies).
The assay was also modified to enhance the screening throughput. Instead of the sequential addition, all the assay components were mixed and added simultaneously to the purified compound to be assayed. A 125 μl reaction mix of the assay components was prepared in the buffer supplied by the manufacturer (50 mM Tris 7.3, and 1% BSA). […] The reaction mix (125 ul) was then added to 25 ul of compound diluted in water in a Costar-3651 flat bottom 96-well plate. […] The absorbance was monitored over a period of 1 hour at 405 nm using a plate reader (Synergy 2, Biotek).
The 405 nm absorbance data were then analyzed to obtain the slope of the first derivative which reflects the rate of change in absorbance. The first derivative slope data for each compound concentration were plotted against the compound concentration and fitted to a four-parameter equation to obtain the EC50 and Vmax values for each compound tested.

Chain of FIXa (P00740 47-191 limits assumed): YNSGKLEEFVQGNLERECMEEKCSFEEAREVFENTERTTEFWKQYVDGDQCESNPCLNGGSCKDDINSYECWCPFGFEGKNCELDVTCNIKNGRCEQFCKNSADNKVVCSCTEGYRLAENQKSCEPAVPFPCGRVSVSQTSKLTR
Chain of FIXa (P00740 227-461 limits assumed): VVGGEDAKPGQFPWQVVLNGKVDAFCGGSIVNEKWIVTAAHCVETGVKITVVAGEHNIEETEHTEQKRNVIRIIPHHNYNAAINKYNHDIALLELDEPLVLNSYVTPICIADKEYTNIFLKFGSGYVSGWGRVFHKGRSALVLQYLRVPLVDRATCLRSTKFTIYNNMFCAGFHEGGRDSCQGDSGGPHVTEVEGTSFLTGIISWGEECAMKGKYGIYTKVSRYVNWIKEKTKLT

Question: Which Vmax does the source give for LLHAQKLSCLASYCWVFDAEWD here?
Answer: Its Vmax is “(+) ((+)<1)”.

Question: How did the Vmax turn out when GEGGGKLSCVAIQCGLFKGLGR was run?
Answer: Its Vmax is “(+) ((+)<1)”.

Question: Which Vmax does the source give for DSRSAKRKCLASYCWLFGIGQA here?
Answer: Its Vmax is “(+) ((+)<1)”.

Question: How did the Vmax turn out when NLTGRASYGWLP was run?
Answer: The Vmax was “(+) ((+)<1)”.

Question: Which Vmax does the source give for VSGTGRLTCVASYCWMFQLGIF here?
Answer: Its Vmax is “(++) ((++) 1-2)”.

Question: For VARASKVECLASYCQLFVGGEV, which Vmax is on record?
Answer: The Vmax was “(+) ((+)<1)”.

Question: For SLADTQLTWLARQYWLSVSEGS, which Vmax is on record?
Answer: Its Vmax is “(+) ((+)<1)”.

Question: For KRYVYRQMCLVSACWLLQLGYA, which Vmax is on record?
Answer: Its Vmax is “(++) ((++) 1-2)”.

Question: For RSFTSELTCLASSCRRFHHVPP, which Vmax is on record?
Answer: The Vmax was “(+) ((+)<1)”.

Question: Which Vmax does the source give for KLTCQASYCWLF here?
Answer: The Vmax was “(++) ((++) 1-2)”.

Question: For VQRSTQLTCLYGGCRLFGWNYH, which Vmax is on record?
Answer: Its Vmax is “(+) ((+)<1)”.

Question: Which Vmax does the source give for AQTRVARCCQLF here?
Answer: Its Vmax is “(+) ((+)<1)”.

Question: For RQLWNKLTCLASYCALIGLSGT, which Vmax is on record?
Answer: The Vmax was “(++) ((++) 1-2)”.

Question: With KLTCLVSYCWLF as the sequence, how does the EC50 read?
Answer: The EC50 was 500 to 1000 nM.

Question: What about the Vmax of the same sequence?
Answer: Its Vmax is “(+++) ((+++)>2)”.

Question: For KLTCRASYCQLF, which Vmax is on record?
Answer: The Vmax was “(+++) ((+++)>2)”.

Question: QLTCLASYCGGV was tested. Which Vmax did it give?
Answer: Its Vmax is “(+) ((+)<1)”.

Question: SGGSGKLTCLASYCWPFGSQVR was tested. Which Vmax did it give?
Answer: Its Vmax is “(+) ((+)<1)”.

Question: How did the Vmax turn out when HLGSPKLTCGASQCWLLNHEVS was run?
Answer: Its Vmax is “(+) ((+)<1)”.

Question: How did the Vmax turn out when MAGMLKLTCFASYCGLFPLVSS was run?
Answer: The Vmax was “(++) ((++) 1-2)”.

Question: How did the Vmax turn out when LRTQPKVTGLASCSGLVNCSRD was run?
Answer: The Vmax was “(+) ((+)<1)”.

Question: For GGALQQLTCPASYCWLFPMEHS, which Vmax is on record?
Answer: The Vmax was “(+) ((+)<1)”.

Question: How did the Vmax turn out when KLTCKASYCWLF was run?
Answer: Its Vmax is “(++++) ((++++)>3)”.

Question: How did the EC50 turn out when KLTCLASYCQLF was run?
Answer: The EC50 was 500 to 1000 nM.

Question: And the Vmax?
Answer: The Vmax was “(++++) ((++++)>3)”.

Question: With NPTCQASYCQLF as the sequence, how does the Vmax read?
Answer: Its Vmax is “(+) ((+)<1)”.

Question: Which Vmax does the source give for KLTCLASKCWLF here?
Answer: The Vmax was “(+) ((+)<1)”.

Question: For FPIQHKLTCLSSDCWLFPSHSY, which Vmax is on record?
Answer: Its Vmax is “(+) ((+)<1)”.

Question: Which Vmax does the source give for LLQIPNLTCLGSYCWLDNGVYA here?
Answer: Its Vmax is “(+) ((+)<1)”.

Question: With SGRGGKLTCQASFCQLFGNGLS as the sequence, how does the Vmax read?
Answer: The Vmax was “(++) ((++) 1-2)”.

Question: Which Vmax does the source give for RSTVSQMRCLASYCWLFPALVS here?
Answer: The Vmax was “(++) ((++) 1-2)”.

Question: TLTCRASYCQLF was tested. Which Vmax did it give?
Answer: Its Vmax is “(+) ((+)<1)”.

Question: How did the Vmax turn out when KLTCLASYCQLV was run?
Answer: Its Vmax is “(+++) ((+++)>2)”.

Question: Which Vmax does the source give for RGRSAKLTCLASYCWLFFGVIL here?
Answer: The Vmax was “(+++) ((+++)>2)”.

Question: Which Vmax does the source give for ERYRLDMTCMASQCWQFPPAAG here?
Answer: Its Vmax is “(++) ((++) 1-2)”.

Question: With HQQRRKLTCLAGYCWLFVLGPS as the sequence, how does the Vmax read?
Answer: The Vmax was “(+++) ((+++)>2)”.

Question: Which Vmax does the source give for VDKGHQLRCQAGYCWLLGYNRE here?
Answer: The Vmax was “(+) ((+)<1)”.

Question: How did the Vmax turn out when RGRSAKLRCLASYCWLFFTVIL was run?
Answer: Its Vmax is “(+++) ((+++)>2)”.

Question: QLTCLASECGLS was tested. Which Vmax did it give?
Answer: Its Vmax is “(+) ((+)<1)”.

Question: GFGSRKLTSLASYGWLIQDRLP was tested. Which Vmax did it give?
Answer: The Vmax was “(+) ((+)<1)”.

Question: QLPCLASYCGLF was tested. Which Vmax did it give?
Answer: The Vmax was “(+) ((+)<1)”.

Question: Which Vmax does the source give for TLDSKNLQCLGSSCWLFSSGLS here?
Answer: Its Vmax is “(+) ((+)<1)”.

Question: With WHERQQLTCLASYCGLFVGQVA as the sequence, how does the Vmax read?
Answer: Its Vmax is “(+) ((+)<1)”.

Question: For GIQGSEVACRASFCRLFEQGHV, which Vmax is on record?
Answer: Its Vmax is “(+) ((+)<1)”.

Question: For VGEHRKISCVASNCQLLRSGLA, which Vmax is on record?
Answer: Its Vmax is “(+) ((+)<1)”.

Question: With SRQSDKPTCLAISCSLLTSNVR as the sequence, how does the Vmax read?
Answer: Its Vmax is “(+) ((+)<1)”.

Question: Which Vmax does the source give for QDGDGKLTCRASYCRRFLVGVH here?
Answer: Its Vmax is “(+) ((+)<1)”.

Question: GVEDRQLTCLASSCWVFSRHSV was tested. Which Vmax did it give?
Answer: Its Vmax is “(++) ((++) 1-2)”.

Question: With SYGRTKLTCLASSCWLFGQVHG as the sequence, how does the Vmax read?
Answer: The Vmax was “(+) ((+)<1)”.

Question: How did the Vmax turn out when GCSSDKLTARTRHCSMFQPLSV was run?
Answer: The Vmax was “(+) ((+)<1)”.

Question: With DAKVAKLRCLGSQCWLLQYAPG as the sequence, how does the Vmax read?
Answer: The Vmax was “(++) ((++) 1-2)”.

Question: VSGTGKLTCLASYCWLFQLGSF was tested. Which Vmax did it give?
Answer: The Vmax was “(++) ((++) 1-2)”.

Question: Which Vmax does the source give for QDGVEKLTCLASYCWRFGDHGA here?
Answer: The Vmax was “(+) ((+)<1)”.

Question: What does the source list for KLTCLASYCWIF?
Answer: EC50: 500 to 1000 nM; Vmax: (+++) ((+++)>2)

Question: With KLTCLKSYCWLF as the sequence, how does the Vmax read?
Answer: Its Vmax is “(++) ((++) 1-2)”.

Question: DAGPNKLRCLASYCQLFGGGHA was tested. Which Vmax did it give?
Answer: The Vmax was “(+) ((+)<1)”.

Question: With QEQPAKLTCRGSYCWLFKRGDQ as the sequence, how does the Vmax read?
Answer: Its Vmax is “(+) ((+)<1)”.

Question: How did the Vmax turn out when QAKMLKLTCLASYCWLFWVTRS was run?
Answer: Its Vmax is “(+++) ((+++)>2)”.

Question: How did the Vmax turn out when KKTCLASYCWLF was run?
Answer: Its Vmax is “(++) ((++) 1-2)”.

Question: Which results are given for KLTCLASYCFLF?
Answer: EC50: 500 to 1000 nM; Vmax: (++++) ((++++)>3)

Question: Which Vmax does the source give for KLTCLSSYCWLF here?
Answer: Its Vmax is “(+++) ((+++)>2)”.

Question: For AWPYHKPTCLASQCWQFLAQGS, which Vmax is on record?
Answer: The Vmax was “(+) ((+)<1)”.

Question: QQRQIKMSCLASYCWLFGSIPW was tested. Which EC50 did it give?
Answer: Its EC50 is 500 to 1000 nM.

Question: And the Vmax?
Answer: The Vmax was “(++) ((++) 1-2)”.
